# What was measured:
# [1] = standard hemostasis strength device; conditions: povidone iodine at 10%
# Protocol: A mixture of various iron sources, chelation compounds, and active antimicrobials was tested using the recovered biofilm from WU according to the matrix in Table III.
# Each mixture was tested in a standard hemostasis strength device described in detail in FDA 510k filing, K080210, incorporated herein in its entirety, and in the standardized 96 unit biofilm eradication test device also described in the 510k filing. The results were indexed* to #12, the ferrate/resin/10% PI powder.
# [2] = stability of PI in the dry powder; type: physicochemical; conditions: very dry environment of the powder
# Source text: The PI is stable in this very dry environment.
# [3] = cited from earlier work
# [4] = on dilution; cited from earlier work
substance,measurement,setting,value
PVP-Iodine [PI],effect of PI addition on hemostatic efficiency,[1],does not affect the hemostatic efficiency
same,stability of PI,[2],stable
same,efficacy at concentrations of 5-10% PI,[3]; 5-10% PI,ineffective
same,I2 concentration of non-effective kill,[3]; pamphlet FIG. 2,< 0.001%
same,solution strength at maximum content of uncomplexed iodine,[4],0.1%

# From US20140341837A1, “Ferrate and Povidone Iodine (PI) Composition” (Biolife, L.L.C., priority 2010, published 2014)
